Tests used:
Assay in all cases: NCI SRB growth inhibition (single dose 10 µM / five-dose)
Format in all cases: cell-based, human
BT-549 = details: for GI50: BT-549, Breast cancer, five-dose
Summary of the method: (§1)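 SRB protein stain of fixed cells; compounds tested at one dose (10 µM) or five serial dilutions (10-fold or ½ log), diluted from DMSO stock. Cells plated 24 h before dosing, with a time-zero plate fixed in TCA. Percent growth derived from Tz, control and test absorbances; TGI taken where Ti = Tz.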

CCRF-CEM = details: for GI50: CCRF-CEM, Leukemia, five-dose
Summary of the method: as §1

DU-145 = details: for GI50: DU-145, Prostate cancer, five-dose
Summary of the method: as §1

HT29 = details: for GI50: HT29, Colon cancer, five-dose
Summary of the method: as §1

IGROV1 = details: for GI50: IGROV1, Ovarian cancer, five-dose
Summary of the method: as §1

K-562 = details: for GI50: K-562, Leukemia, five-dose
Summary of the method: as §1

KM12 = details: for GI50: KM12, Colon cancer, five-dose
Summary of the method: as §1

M14 = details: for GI50: M14, Melanoma, five-dose
Summary of the method: as §1

MDA-MB-231/ATCC = details: for GI50: MDA-MB-231/ATCC, Breast cancer, five-dose
Summary of the method: as §1

NCI-H226 = details: for GI50: NCI-H226, Non-small cell lung cancer, five-dose
Summary of the method: as §1

NCI-H522 = details: for GI50: NCI-H522, Non-small cell lung cancer, five-dose
Summary of the method: as §1

OVCAR-3 = details: for GI50: OVCAR-3, Ovarian cancer, five-dose
Summary of the method: as §1

OVCAR-4 = details: for GI50: OVCAR-4, Ovarian cancer, five-dose
Summary of the method: as §1

PC-3 = tested on: PC-3
Summary of the method: as §1

RPMI-8226 = details: for GI50: RPMI-8226, Leukemia, five-dose
Summary of the method: as §1

RXF 393 = details: for GI50: RXF 393, Renal cancer, five-dose
Summary of the method: as §1

SF-268 = details: for GI50: SF-268, CNS cancer, five-dose
Summary of the method: as §1

SF-295 = details: for GI50: SF-295, CNS cancer, five-dose
Summary of the method: as §1

SK-MEL-28 = details: for GI50: SK-MEL-28, Melanoma, five-dose
Summary of the method: as §1

SK-MEL-2 = details: for GI50: SK-MEL-2, Melanoma, five-dose
Summary of the method: as §1

SK-MEL-5 = details: for GI50: SK-MEL-5, Melanoma, five-dose
Summary of the method: as §1

SK-OV-3 = details: for GI50: SK-OV-3, Ovarian cancer, five-dose
Summary of the method: as §1

SN12C = details: SN12C, Renal cancer, five-dose
Summary of the method: as §1

SNB-75 = details: for GI50: SNB-75, CNS cancer, five-dose
Summary of the method: as §1

U251 = details: for GI50: U251, CNS cancer, five-dose
Summary of the method: as §1

UO-31 = details: for GI50: UO-31, Renal cancer, five-dose
Summary of the method: as §1

With `COc1cc(C=NNC(=O)c2ccc3[nH]c(-c4ccc(Cl)cc4)nc3c2)cc(OC)c1OC` [8u, 2-(4-Chlorophenyl)-N'-(3,4,5-trimethoxybenzylidene)-1H-benzo[d]imidazole-5-carbohydrazide] the inhibition at 10 µM (BT-549; Homo sapiens, BT-549 (Breast cancer), 10 µM, read-out: GI%) was over 100%, the GI50 (BT-549; Homo sapiens) was 2.69 µM and the inhibition at 10 µM (CCRF-CEM; Homo sapiens, CCRF-CEM (Leukemia), 10 µM, read-out: GI%) was over 100%. The GI50 (CCRF-CEM; Homo sapiens) was 6.27 µM, the inhibition at 10 µM (DU-145; Homo sapiens, DU-145 (Prostate cancer), 10 µM, read-out: GI%) was over 100% and the GI50 (DU-145; Homo sapiens) was 6.77 µM. The inhibition at 10 µM (HT29; Homo sapiens, HT-29, HT29 (Colon cancer), 10 µM, read-out: GI%) was over 100%, the GI50 (HT29; Homo sapiens, HT-29) was 2.98 µM and the inhibition at 10 µM (IGROV1; Homo sapiens, IGROV-1, IGROV1 (Ovarian cancer), 10 µM, read-out: GI%) was 92.4%. For the same compound, the GI50 (IGROV1; Homo sapiens, IGROV-1) was 11 µM, the inhibition at 10 µM (K-562; Homo sapiens, K562, K-562 (Leukemia), 10 µM, read-out: GI%) was over 100% and the GI50 (K-562; Homo sapiens, K562) was 1.96 µM. For the same compound, the inhibition at 10 µM (KM12; Homo sapiens, KM12 (Colon cancer), 10 µM, read-out: GI%) was over 100%, the GI50 (KM12; Homo sapiens) was 4.5 µM and the inhibition at 10 µM (M14; Homo sapiens, M14 (Melanoma), 10 µM, read-out: GI%) was over 100%. The GI50 (M14; Homo sapiens) was 3.77 µM, the inhibition at 10 µM (MDA-MB-231/ATCC; Homo sapiens, MDA-MB-231/ATCC (Breast cancer), 10 µM, read-out: GI%) was over 100% and the GI50 (MDA-MB-231/ATCC; Homo sapiens) was 3.39 µM. The inhibition at 10 µM (NCI-H226; Homo sapiens, NCI-H226 (Non-small cell lung cancer), 10 µM, read-out: GI%) was over 100%, the GI50 (NCI-H226; Homo sapiens) was 1.31 µM and the inhibition at 10 µM (NCI-H522; Homo sapiens, NCI-H522 (Non-small cell lung cancer), 10 µM, read-out: GI%) was over 100%. For the same compound, the GI50 (NCI-H522; Homo sapiens) was 4.9 µM, the inhibition at 10 µM (OVCAR-3; Homo sapiens, OVCAR-3 (Ovarian cancer), 10 µM, read-out: GI%) was over 100% and the GI50 (OVCAR-3; Homo sapiens) was 2.28 µM. The inhibition at 10 µM (OVCAR-4; Homo sapiens, OVCAR-4 (Ovarian cancer), 10 µM, read-out: GI%) was over 100%, the GI50 (OVCAR-4; Homo sapiens) was 2.35 µM and the inhibition at 10 µM (PC-3; Homo sapiens, PC-3 (Prostate cancer), 10 µM, read-out: GI%) was over 100%. For the same compound, the GI50 (PC-3; Homo sapiens, PC-3, Prostate cancer, five-dose) was 5.73 µM, the inhibition at 10 µM (RPMI-8226; Homo sapiens, RPMI-8226 (Leukemia), 10 µM, read-out: GI%) was over 100% and the GI50 (RPMI-8226; Homo sapiens) was 3.21 µM. It also gave an inhibition at 10 µM (RXF 393; Homo sapiens, RXF 393 (Renal cancer), 10 µM, read-out: GI%) of over 100%, a GI50 (RXF 393; Homo sapiens) of 2.22 µM and an inhibition at 10 µM (SF-268; Homo sapiens, SF-268 (CNS cancer), 10 µM, read-out: GI%) of over 100%. It also gave a GI50 (SF-268; Homo sapiens) of 4.4 µM, an inhibition at 10 µM (SF-295; Homo sapiens, SF-295 (CNS cancer), 10 µM, read-out: GI%) of over 100% and a GI50 (SF-295; Homo sapiens) of 4.18 µM. It also gave an inhibition at 10 µM (SK-MEL-28; Homo sapiens, SK-MEL-28 (Melanoma), 10 µM, read-out: GI%) of over 100%, a GI50 (SK-MEL-28; Homo sapiens) of 1.83 µM and an inhibition at 10 µM (SK-MEL-2; Homo sapiens, SK-MEL-2 (Melanoma), 10 µM, read-out: GI%) of over 100%. The GI50 (SK-MEL-2; Homo sapiens) was 11 µM, the inhibition at 10 µM (SK-MEL-5; Homo sapiens, SK-MEL-5 (Melanoma), 10 µM, read-out: GI%) was over 100% and the GI50 (SK-MEL-5; Homo sapiens) was 2.83 µM. For the same compound, the inhibition at 10 µM (SK-OV-3; Homo sapiens, SK-OV-3 (Ovarian cancer), 10 µM, read-out: GI%) was over 100%, the GI50 (SK-OV-3; Homo sapiens) was 15 µM and the GI50 (SN12C; Homo sapiens) was 3.22 µM. For the same compound, the inhibition at 10 µM (SNB-75; Homo sapiens, SNB-75 (CNS cancer), 10 µM, read-out: GI%) was over 100%, the GI50 (SNB-75; Homo sapiens) was 1.28 µM and the inhibition at 10 µM (U251; Homo sapiens, U-251, U251 (CNS cancer), 10 µM, read-out: GI%) was over 100%. It also gave a GI50 (U251; Homo sapiens, U-251) of 2.59 µM, an inhibition at 10 µM (UO-31; Homo sapiens, UO-31 (Renal cancer), 10 µM, read-out: GI%) of 41.1% and a GI50 (UO-31; Homo sapiens) of over 100 µM.

With “N'-(2-Hydroxybenzylidene)-2-phenyl-1H-benzo[d]imidazole-5-carbohydrazide [8a]” the GI% (BT-549; BT-549 (Breast cancer), 10 µM) was “L (GI% > 100)”, the GI50 (BT-549) was 1.8 µM and the GI% (CCRF-CEM; CCRF-CEM (Leukemia), 10 µM) was 88.16%. For the same compound, the GI50 (CCRF-CEM) was 0.26 µM, the GI% (DU-145; DU-145 (Prostate cancer), 10 µM) was “L (GI% > 100)” and the GI50 (DU-145) was 2.75 µM. The GI% (HT29; HT29 (Colon cancer), 10 µM) was “L (GI% > 100)”, the GI50 (HT29) was 2.63 µM and the GI% (IGROV1; IGROV1 (Ovarian cancer), 10 µM) was 82.83%. It also gave a GI50 (IGROV1) of 3.9 µM, a GI% (K-562; K-562 (Leukemia), 10 µM) of 78.58% and a GI50 (K-562) of 3.39 µM. The GI% (KM12; KM12 (Colon cancer), 10 µM) was 84.00%, the GI50 (KM12) was 3.72 µM and the GI% (M14; M14 (Melanoma), 10 µM) was 81.80%. The GI50 (M14) was 0.92 µM, the GI% (MDA-MB-231/ATCC; MDA-MB-231/ATCC (Breast cancer), 10 µM) was 88.16% and the GI50 (MDA-MB-231/ATCC) was 2.03 µM. For the same compound, the GI% (NCI-H226; NCI-H226 (Non-small cell lung cancer), 10 µM) was 93.32%, the GI50 (NCI-H226) was 4.02 µM and the GI% (NCI-H522; NCI-H522 (Non-small cell lung cancer), 10 µM) was “L (GI% > 100)”. For the same compound, the GI50 (NCI-H522) was 1.87 µM, the GI% (OVCAR-3; OVCAR-3 (Ovarian cancer), 10 µM) was “L (GI% > 100)” and the GI50 (OVCAR-3) was 1.94 µM. For the same compound, the GI% (OVCAR-4; OVCAR-4 (Ovarian cancer), 10 µM) was 94.42%, the GI50 (OVCAR-4) was 2.24 µM and the GI% (PC-3; PC-3 (Prostate cancer), 10 µM) was 90.74%. The GI% (RPMI-8226; RPMI-8226 (Leukemia), 10 µM) was 88.59%, the GI50 (RPMI-8226) was 1.19 µM and the GI% (RXF 393; RXF 393 (Renal cancer), 10 µM) was “L (GI% > 100)”. The GI50 (RXF 393) was 2.37 µM, the GI% (SF-268; SF-268 (CNS cancer), 10 µM) was “L (GI% > 100)” and the GI50 (SF-268) was 2.78 µM. For the same compound, the GI% (SF-295; SF-295 (CNS cancer), 10 µM) was “L (GI% > 100)”, the GI50 (SF-295) was 2.7 µM and the GI% (SK-MEL-28; SK-MEL-28 (Melanoma), 10 µM) was 82.67%. For the same compound, the GI50 (SK-MEL-28) was 4.62 µM, the GI% (SK-MEL-2; SK-MEL-2 (Melanoma), 10 µM) was 60.21% and the GI50 (SK-MEL-2) was 3.19 µM. For the same compound, the GI% (SK-MEL-5; SK-MEL-5 (Melanoma), 10 µM) was 85.73%, the GI50 (SK-MEL-5) was 3.75 µM and the GI% (SK-OV-3; SK-OV-3 (Ovarian cancer), 10 µM) was “L (GI% > 100)”. For the same compound, the GI50 (SK-OV-3) was 2.62 µM, the GI50 (SN12C) was 4.67 µM and the GI% (SNB-75; SNB-75 (CNS cancer), 10 µM) was “L (GI% > 100)”. The GI50 (SNB-75) was 2.2 µM, the GI% (U251; U251 (CNS cancer), 10 µM) was “L (GI% > 100)” and the GI50 (U251) was 2.11 µM. For the same compound, the GI% (UO-31; UO-31 (Renal cancer), 10 µM) was 86.22% and the GI50 (UO-31) was 0.6 µM.
